This note sets out measurements from patent US20080153792A1, “Drug Identification and Treatment Method” (priority 2006, published 2008).

Experiment [1] relates to mice given a lethal amount of LPS. As to the kind of experiment: lethal shock protocol, lethal amount of bacterial LPS. It is filed as in vivo, mouse. As to conditions: for survival 72 hours after LPS: first protocol. As to the method:
Treatment of lethal inflammation/shock. Two compounds, 16α-bromoepiandrosterone (3β-hydroxy-16α-bromoandrostane-17-one) and 3β,16α-dihydroxy-17-oxoandrostane, were used in a lethal shock protocol. In one protocol, 3 mg of 16α-bromoepiandrosterone was administered to one group of animals by oral gavage, while another group received 3 mg of 16α-bromoepiandrosterone by subcutaneous injection. A group of control animals received a placebo control. In this protocol, the 16α-bromoepiandrosterone was administered to mice at 24 hours before and at 1 hour after administration of a lethal amount of bacterial lipopolysaccharide (LPS). By the end of the observation period, 72 hours after LPS administration, none of the vehicle treated placebo control animals had survived, while 65% of animals that received 16α-bromoepiandrosterone by oral administration survived. 50% of the animals that received 16α-bromoepiandrosterone by subcutaneous injection survived. Animals that survived for 72 hours all recovered from the LPS exposure.
In a second assay, 16α-bromoepiandrosterone or 3β,16α-dihydroxy-17-oxoandrostane was administered to mice by oral gavage at 24 hours before and 1 hour after administration of a lethal amount of LPS. A vehicle treated group of animals was used as the placebo control.

Another experiment relates to NF-κB. The experiment can be described thus: NF-κB-bla THP-1 β-lactamase reporter assay. The class given is cell-based, human. The conditions noted are these: this protocol. A general note: A reporter such as luciferase makes a cellular process visible.
Another experiment has as its system Pseudomonas aeruginosa. As to the kind of experiment: clearance of chronic lung infection in CFTR mice. It is filed as in vivo. As to conditions: 40 mg/kg; day 10; p=<0.04 vs vehicle. As for the experimental part:
Clearance of bacteria from lung tissue. The capacity of 16α-bromoepiandrosterone to clear a Pseudomonas aeruginosa infection from lung tissue was shown using a previously published protocol, A. van Heeckeren et al., J. Clin. Invest., 100(11):2810-2815 […]; A. van Heeckeren et al., Am. J. Respir. Crit. Care Med., 161:271-279 2000. The protocol was conducted in CFTR mice, which are used as an animal model for human cystic fibrosis, S. D. Freedman et al., Proc. Natl. Acad. Sci. USA, 96(24):13995-14000 1999; W. Zeng et al., Am. J. Physiol. Cell. Physiol. […] Establishment of chronic P. aeruginosa infection using agarose beads containing bacteria (50 μL containing about 6.1×10^4 CFU/animal) was published earlier, J. R. Starke et al., Pediatr. Res., 22:698-702 1987. Two groups of mice (n=9 for each group) were treated with 40 mg/kg of 16α-bromoepiandrosterone or vehicle (control) and the bacterial burden in the lungs of the animals was determined at 10 days after introduction of the agarose beads into the lung.

Experiment [2] relates to mice, LPS induced lung injury. The experiment can be described thus: lung injury by sublethal LPS to trachea and lungs, BAL cell count. The class given is in vivo, mouse. As to conditions: oral gavage 24 h before and 1 h after 100 μg LPS; 48 hours. As for the experimental part: In another assay, the capacity of 16α-bromoepiandrosterone and 3β,16α-dihydroxy-17-oxoandrostane to protect against lung injury induced by exposure to a sublethal amount of LPS in mice was shown. In this assay, the compounds, sterile saline (negative control) or vehicle (vehicle control) were administered to groups of 5 mice by oral gavage at 24 hours before and 1 hour after administration of 100 μg of LPS to the trachea and lungs of animals under light anesthesia. At 48 hours the animals were sacrificed and samples were obtained from the lungs of the animals by bronchiolar alveolar lavage (BAL). The numbers of cells in the BAL fluid were counted, with high numbers of cells showing lung inflammation and damage. In this assay, cells that mediate inflammation and lung damage infiltrate into the lungs in response to the presence of the LPS. In the negative control and vehicle control groups, the BAL fluid contained about 6×10^7 cells/mL. […] Other compounds, e.g., 17α-ethynylandrost-5-ene-3β,7β,17β-triol or 17β-aminoandrost-5-ene-3β-ol, can be characterized in a similar manner.

Experiment [3] has as its system γ-interferon production by human whole blood. The experiment can be described thus: γ-interferon production in human whole blood exposed to LPS. The conditions noted are these: LPS 24 hours; 16α-bromoepiandrosterone at 100 ng/mL. The class given is cell-based. As for the experimental part: Anti-inflammation activity in human cells in vitro. […] The amount of γ-interferon was measured in the growth medium when the cells had been incubated in the presence of LPS for 24 hours.

Experiment [4] relates to CD4^+CD25^+ T regulatory cells. The experiment can be described thus: CD4+CD25+ T regulatory cells after adoptive transfer of CD4+CD25- T cells. It is filed as in vivo, mouse. The conditions noted are these: 1 mg/animal/day s.c. for 14 days. As to the method:
Inhibition of the generation of CD4^+CD25^+ T regulatory cells or their activity in vivo. Purified CD4^+CD25^− T cells (5×10^6 cells) from congenic B6.5JL mice (CD45.1) per group were adoptively transferred into each of five B6 mice (CD45.2). The purified CD4^+CD25^− T cells were obtained by fluorescence activated cell sorting (FACS) of the donor cells at least twice. Vehicle (0.1% carboxymethylcellulose, 0.9% saline, 2% tween 80, 0.05% phenol) or 16α-bromoepiandrosterone in vehicle (1 mg/animal/day in 100 μL vehicle) was injected subcutaneously before transfer of the cells from the CD45.1 donor animals and the injections were continued daily for 14 days. Thymus, lymph nodes and spleens were collected from the animals at day 15. Samples of thymus, lymph node and spleen were obtained from individuals, and the cells were labeled with fluorescent antibody that bound to CD4, CD25, CD103 or Foxp3. The cells were then analyzed by flow cytometry to enumerate the numbers of the various cell types. The remainder of cells from lymph nodes and spleen of each treatment group were pooled, pre-enriched for CD4^+CD25^+ cells and then analyzed for CD4^+CD25^+ that arose from the host (endogenous CD45.2 cells) and from donor cells (CD45.1 cells that converted from the CD4^+CD25^− donor phenotype to the CD4^+CD25^+ phenotype after residing in vivo for 15 days). The cells were analyzed by cell sorter. To test for regulatory function, varying numbers of purified converted CD45.1 or endogenous CD45.2 CD4^+CD25^+ cells were co-cultured with 2000 CD4^+CD25^− responder cells, 1×10^5 irradiated spleen cells as antigen presenting cells, and […] of anti-CD3 antibody. Fresh CD4^+CD25^+ cells were used as controls. Proliferation was determined by measurement of ^3H-thymidine uptake 4 days after initiation of culture.

Experiment [5] relates to CF-1 mice, hemorrhagic shock. As to the kind of experiment: hemorrhagic shock and ischemia with abdominal surgery. The class given is in vivo, mouse. As to conditions: 2 mg in resuscitation fluid; vehicle control 1/15. As to the method: The effect of compounds on hemorrhagic shock and ischemia was examined in another protocol. CF-1 mice at an age of 6-8 months were anesthetized using methoxyfluorothane and prepared for abdominal surgery. Each mouse was tested for the level of respiration, eye blink response and response to a skin pinch to ensure a level of anesthesia appropriate for surgery. The duration of abdominal surgery was approximately two hours, during which time 35-40% of the animal's blood volume is removed over a […]. The removal of blood in a controlled manner simulates the effect of hemorrhagic shock. A slow intravenous infusion of the removed blood and a 2× volume of resuscitation fluid (lactated Ringers solution) into a central vein was made. The resuscitation fluid was supplemented with either 2 mg dehydroepiandrosterone-3β-sulfate or the excipient as a placebo. The peritoneum and overlying skin were sutured separately. Animals were maintained at 38°-39° C. until recovery is complete. Under these conditions, most of the placebo-treated animals died within 24-48 hours. […] Mesenteric lymph nodes (MLN) were removed and cultured on blood agar plates and the number of CFUs counted following culturing. The liver was removed and the amount malondialdehyde was measured.

Turning to `C[C@]12CC[C@H](O)C[C@@H]1CC[C@@H]1[C@@H]2CC[C@]2(C)C(=O)[C@H](Br)C[C@@H]12` [16α-bromoepiandrosterone], the “survival 72 hours after LPS” value in experiment [1] (3 mg by oral gavage 24 h before and 1 h after LPS) came to 65%; in experiment [1] (3 mg by subcutaneous injection 24 h before and 1 h after LPS), 50%. In addition, in experiment [1] (second assay, oral gavage 24 h before and 1 h after LPS), the “survival at 72 hours” value is on record as 80%. Moreover, in the experiment with NF-κB, the “maximum NF-κB inhibition” value is given as 100%. Further, in the experiment with Pseudomonas aeruginosa, the “bacterial burden in the lungs” value is recorded as “reduced”. For the same compound, in experiment [2], the “cell counts in the BAL fluid” value was “about 4.4×10^7 cells/mL”. The “production of γ-interferon” value in experiment [3] is listed as “Reduced production”. For the same compound, in experiment [4] (day 15, vehicle 1.97×10^5), the “average donor CD45.1 CD4^+CD25^+ cell number in spleens” value was 0.62×10^5 cells. For the same compound, the “average endogenous CD45.2 CD4^+CD25^+ cells in the thymus” value in experiment [4] (day 15, vehicle 3.10×10^5) was 1.59×10^5. Moreover, the “average endogenous CD45.2 CD4^+CD25^+ cell number in spleens” value in experiment [4] (day 15, vehicle 9.54×10^6) is given as 5.49×10^6 cells. Moreover, the “proportion of endogenous CD45.2 CD4^+CD25^+CD103^+ Treg cells in spleens” value in experiment [4] (vehicle 13.85%) came out at 13.40%. In experiment [4] (vehicle 29.06%), the “average of donor CD45.1 CD4^+CD25^+CD103^+ cells of total donor CD4^+CD25^+ cells in spleens” value was 9.63%.
Consider `C[C@]12CC[C@H](OS(=O)(=O)O)CC1=CC[C@@H]1[C@@H]2CC[C@]2(C)C(=O)CC[C@@H]12` [dehydroepiandrosterone-3β-sulfate], for which, in experiment [5], the survival is listed as 15/15.
